Assays:
[1] = in vivo; settings: dog, plasma
Description: Plasma clearance was measured in dog

[2] = in vivo; settings: dog
Description: Half-life was measured in dog

[3] = physchem; settings: octanol/water
Description: Partition coefficient (logP)

[4] = molecular target: Integrin alpha-V/beta-3 (Homo sapiens, UniProt P05106+P06756)
Description: Displacement of [125I]-labeled nonpeptide from purified recombinant human alphaV-beta3 integrin

[5] = in vivo; settings: dog, po
Description: Oral bioavailability in dog

Integrin alpha-V/beta-3, sequence (P05106 27-788 limits assumed): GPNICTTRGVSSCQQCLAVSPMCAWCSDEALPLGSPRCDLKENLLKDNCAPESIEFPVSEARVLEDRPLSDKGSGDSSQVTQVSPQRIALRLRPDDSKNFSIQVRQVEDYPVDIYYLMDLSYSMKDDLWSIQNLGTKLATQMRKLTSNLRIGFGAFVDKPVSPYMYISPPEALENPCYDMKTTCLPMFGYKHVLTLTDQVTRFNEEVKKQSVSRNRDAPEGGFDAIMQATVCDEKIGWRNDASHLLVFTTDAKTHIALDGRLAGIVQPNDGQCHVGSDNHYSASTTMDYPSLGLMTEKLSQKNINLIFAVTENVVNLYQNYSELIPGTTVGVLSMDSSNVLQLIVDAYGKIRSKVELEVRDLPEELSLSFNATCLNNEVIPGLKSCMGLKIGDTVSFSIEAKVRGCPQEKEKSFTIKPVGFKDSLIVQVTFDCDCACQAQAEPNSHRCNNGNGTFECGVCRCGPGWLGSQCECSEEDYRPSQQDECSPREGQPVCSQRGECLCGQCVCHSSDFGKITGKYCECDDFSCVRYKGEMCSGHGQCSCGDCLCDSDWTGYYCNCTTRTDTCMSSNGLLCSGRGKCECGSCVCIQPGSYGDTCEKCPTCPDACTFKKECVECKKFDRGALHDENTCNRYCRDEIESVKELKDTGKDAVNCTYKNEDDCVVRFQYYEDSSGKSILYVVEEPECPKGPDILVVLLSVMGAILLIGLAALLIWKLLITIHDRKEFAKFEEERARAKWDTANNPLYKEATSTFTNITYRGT
Integrin alpha-V/beta-3, sequence (P06756 31-889 limits assumed): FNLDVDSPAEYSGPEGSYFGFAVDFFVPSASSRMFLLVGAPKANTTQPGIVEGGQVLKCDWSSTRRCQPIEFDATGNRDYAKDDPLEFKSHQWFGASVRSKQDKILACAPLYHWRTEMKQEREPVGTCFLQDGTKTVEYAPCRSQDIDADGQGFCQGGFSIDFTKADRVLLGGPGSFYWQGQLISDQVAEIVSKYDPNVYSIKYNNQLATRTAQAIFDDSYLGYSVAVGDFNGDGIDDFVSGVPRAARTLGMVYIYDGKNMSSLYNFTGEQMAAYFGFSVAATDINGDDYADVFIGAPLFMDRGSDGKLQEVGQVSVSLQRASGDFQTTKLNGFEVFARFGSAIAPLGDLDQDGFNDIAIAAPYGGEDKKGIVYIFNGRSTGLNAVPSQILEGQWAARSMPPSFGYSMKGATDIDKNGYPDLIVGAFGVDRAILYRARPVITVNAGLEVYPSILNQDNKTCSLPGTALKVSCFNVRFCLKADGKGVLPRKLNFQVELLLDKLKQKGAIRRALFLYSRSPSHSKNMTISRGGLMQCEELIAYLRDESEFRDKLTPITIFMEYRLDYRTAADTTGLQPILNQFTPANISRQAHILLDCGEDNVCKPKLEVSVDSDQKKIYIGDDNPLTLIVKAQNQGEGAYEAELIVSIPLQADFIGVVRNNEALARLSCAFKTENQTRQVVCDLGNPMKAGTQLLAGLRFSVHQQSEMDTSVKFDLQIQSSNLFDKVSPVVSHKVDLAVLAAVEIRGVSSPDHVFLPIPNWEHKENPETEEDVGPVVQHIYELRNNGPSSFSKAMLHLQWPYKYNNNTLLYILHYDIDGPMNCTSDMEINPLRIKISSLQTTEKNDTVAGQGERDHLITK
Integrin alpha-V/beta-3, sequence (P06756 891-1048 limits assumed): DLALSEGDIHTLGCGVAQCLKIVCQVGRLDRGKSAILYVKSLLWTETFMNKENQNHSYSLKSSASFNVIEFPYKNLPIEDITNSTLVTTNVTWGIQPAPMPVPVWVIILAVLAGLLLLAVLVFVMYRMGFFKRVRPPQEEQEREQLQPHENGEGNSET

| clearance [1] | half-life [2] | logP [3] | IC50 [4] | bioavailability [5] | Structure (SMILES) |
| --- | --- | --- | --- | --- | --- |
| 2.1 mL/min/kg | 480 min | 0.88 | 0.39 nM | 52% | O=C(O)C[C@@H](c1ccc2c(c1)OCC2)N1CC[C@@H](CCCc2ccc3c(n2)NCCC3)C1=O |
| 22.9 mL/min/kg | 90 min | -0.12 | 0.22 nM | 11.5% | O=C(O)C[C@@H](c1ccc2c(c1)OCC2)N1CC[C@H](CCCc2ccc3c(n2)NCCC3)C1=O |
| – | – | 0.77 | – | – | O=C(O)C[C@H](NC(=O)CCCCc1ccc2c(n1)NCCC2)c1cnc2ccccc2c1 |

Source: ChEMBL document CHEMBL1136469, “Non-peptide alpha(v)beta(3) antagonists: identification of potent, chain-shortened RGD mimetics that incorporate a central pyrrolidinone constraint” (Bioorg Med Chem Lett, 2003)
